Source: ChEMBL document CHEMBL1212752, “Efficacy of posaconazole in a murine disseminated infection by Candida tropicalis” (2010)
The source made the active and inactive calls. The rule behind the calls is not given here.

Key:
Candida tropicalis [1] = assay: Antifungal activity against Candida tropicalis FMR 10240 assessed as compound concentration causing =>99% reduction in microbial growth; type: functional
Candida tropicalis [2] = assay: Antifungal activity against Candida tropicalis FMR 10241 assessed as compound concentration causing =>99% reduction in microbial growth; type: functional
Candida tropicalis [3] = assay: Antifungal activity against Candida tropicalis FMR 8895 infected in immunosuppressed OF1 mouse assessed as prolongation of mouse survival at 50 mg/kg, po qd for 5 days; type: functional, organism-based; design: dose 50 mg/kg
Candida tropicalis [4] = assay: Antifungal activity against Candida tropicalis FMR 9726 infected in immunosuppressed OF1 mouse assessed as prolongation of mouse survival at 50 mg/kg, po qd for 5 days; type: functional, organism-based; design: dose 50 mg/kg
Candida tropicalis [5] = assay: Antifungal activity against Candida tropicalis FMR 9727 infected in immunosuppressed OF1 mouse assessed as prolongation of mouse survival at 50 mg/kg, po qd for 5 days; type: functional, organism-based; design: dose 50 mg/kg
Candida tropicalis [6] = assay: Antifungal activity against Candida tropicalis FMR 10237 infected in immunosuppressed OF1 mouse assessed as prolongation of mouse survival at 50 mg/kg, po qd for 5 days; type: functional, organism-based; design: dose 50 mg/kg
Candida tropicalis [7] = assay: Antifungal activity against Candida tropicalis FMR 10239 infected in immunosuppressed OF1 mouse assessed as prolongation of mouse survival at 50 mg/kg, po qd for 5 days; type: functional, organism-based; design: dose 50 mg/kg
Candida tropicalis [8] = assay: Antifungal activity against Candida tropicalis FMR 8895 infected in immunosuppressed OF1 mouse assessed as prolongation of mouse survival at 25 mg/kg, po bid for 5 days; type: functional, organism-based; design: dose 25 mg/kg
Candida tropicalis [9] = assay: Antifungal activity against Candida tropicalis FMR 9726 infected in immunosuppressed OF1 mouse assessed as prolongation of mouse survival at 25 mg/kg, po bid for 5 days; type: functional, organism-based; design: dose 25 mg/kg
Candida tropicalis [10] = assay: Antifungal activity against Candida tropicalis FMR 9727 infected in immunosuppressed OF1 mouse assessed as prolongation of mouse survival at 25 mg/kg, po bid for 5 days; type: functional, organism-based; design: dose 25 mg/kg
Candida tropicalis [11] = assay: Antifungal activity against Candida tropicalis FMR 10237 infected in immunosuppressed OF1 mouse assessed as prolongation of mouse survival at 25 mg/kg, po bid for 5 days; type: functional, organism-based; design: dose 25 mg/kg
Candida tropicalis [12] = assay: Antifungal activity against Candida tropicalis FMR 10239 infected in immunosuppressed OF1 mouse assessed as prolongation of mouse survival at 25 mg/kg, po bid for 5 days; type: functional, organism-based; design: dose 25 mg/kg
Candida tropicalis [13] = assay: Antifungal activity against Candida tropicalis FMR 8895 infected in immunosuppressed OF1 mouse assessed as reduction in fungal tissue burden in mouse kidney at 50 mg/kg, po qd for 5 days; type: functional, organism-based; design: dose 50 mg/kg
Candida tropicalis [14] = assay: Antifungal activity against Candida tropicalis FMR 9726 infected in immunosuppressed OF1 mouse assessed as reduction in fungal tissue burden in mouse kidney at 50 mg/kg, po qd for 5 days; type: functional, organism-based; design: dose 50 mg/kg
Candida tropicalis [15] = assay: Antifungal activity against Candida tropicalis FMR 9727 infected in immunosuppressed OF1 mouse assessed as reduction in fungal tissue burden in mouse kidney at 50 mg/kg, po qd for 5 days; type: functional, organism-based; design: dose 50 mg/kg
Candida tropicalis [16] = assay: Antifungal activity against Candida tropicalis FMR 10237 infected in immunosuppressed OF1 mouse assessed as reduction in fungal tissue burden in mouse kidney at 50 mg/kg, po qd for 5 days; type: functional, organism-based; design: dose 50 mg/kg
Candida tropicalis [17] = assay: Antifungal activity against Candida tropicalis FMR 10239 infected in immunosuppressed OF1 mouse assessed as reduction in fungal tissue burden in mouse kidney at 50 mg/kg, po qd for 5 dayss; type: functional, organism-based; design: dose 50 mg/kg
Candida tropicalis [18] = assay: Antifungal activity against Candida tropicalis FMR 8895 infected in immunosuppressed OF1 mouse assessed as reduction in fungal tissue burden in mouse spleen at 50 mg/kg, po qd for 5 days; type: functional, organism-based; design: dose 50 mg/kg
Candida tropicalis [19] = assay: Antifungal activity against Candida tropicalis FMR 9726 infected in immunosuppressed OF1 mouse assessed as reduction in fungal tissue burden in mouse spleen at 50 mg/kg, po qd for 5 days; type: functional, organism-based; design: dose 50 mg/kg
Candida tropicalis [20] = assay: Antifungal activity against Candida tropicalis FMR 9727 infected in immunosuppressed OF1 mouse assessed as reduction in fungal tissue burden in mouse spleen at 50 mg/kg, po qd for 5 days; type: functional, organism-based; design: dose 50 mg/kg
Candida tropicalis [21] = assay: Antifungal activity against Candida tropicalis FMR 10237 infected in immunosuppressed OF1 mouse assessed as reduction in fungal tissue burden in mouse spleen at 50 mg/kg, po qd for 5 days; type: functional, organism-based; design: dose 50 mg/kg
Candida tropicalis [22] = assay: Antifungal activity against Candida tropicalis FMR 10239 infected in immunosuppressed OF1 mouse assessed as reduction in fungal tissue burden in mouse spleen at 50 mg/kg, po qd for 5 days; type: functional, organism-based; design: dose 50 mg/kg
Candida tropicalis [23] = assay: Antifungal activity against Candida tropicalis FMR 10239 infected in immunosuppressed OF1 mouse assessed as reduction in fungal tissue burden in mouse spleen at 25 mg/kg, po bid for 5 days; type: functional, organism-based; design: dose 25 mg/kg
Candida tropicalis [24] = assay: Antifungal activity against Candida tropicalis FMR 10237 infected in immunosuppressed OF1 mouse assessed as reduction in fungal tissue burden in mouse spleen at 25 mg/kg, po bid for 5 days; type: functional, organism-based; design: dose 25 mg/kg
Candida tropicalis [25] = assay: Antifungal activity against Candida tropicalis FMR 9727 infected in immunosuppressed OF1 mouse assessed as reduction in fungal tissue burden in mouse spleen at 25 mg/kg, po bid for 5 days; type: functional, organism-based; design: dose 25 mg/kg
Candida tropicalis [26] = assay: Antifungal activity against Candida tropicalis FMR 8895 infected in immunosuppressed OF1 mouse assessed as reduction in fungal tissue burden in mouse kidney at 25 mg/kg, po bid for 5 days; type: functional, organism-based; design: dose 25 mg/kg
Candida tropicalis [27] = assay: Antifungal activity against Candida tropicalis FMR 9726 infected in immunosuppressed OF1 mouse assessed as reduction in fungal tissue burden in mouse spleen at 25 mg/kg, po bid for 5 days; type: functional, organism-based; design: dose 25 mg/kg
Candida tropicalis [28] = assay: Antifungal activity against Candida tropicalis FMR 8895 infected in immunosuppressed OF1 mouse assessed as reduction in fungal tissue burden in mouse spleen at 25 mg/kg, po bid for 5 days; type: functional, organism-based; design: dose 25 mg/kg
Candida tropicalis [29] = assay: Antifungal activity against Candida tropicalis FMR 10239 infected in immunosuppressed OF1 mouse assessed as reduction in fungal tissue burden in mouse kidney at 25 mg/kg, po bid for 5 dayss; type: functional, organism-based; design: dose 25 mg/kg
Candida tropicalis [30] = assay: Antifungal activity against Candida tropicalis FMR 10237 infected in immunosuppressed OF1 mouse assessed as reduction in fungal tissue burden in mouse kidney at 25 mg/kg, po bid for 5 days; type: functional, organism-based; design: dose 25 mg/kg
Candida tropicalis [31] = assay: Antifungal activity against Candida tropicalis FMR 9727 infected in immunosuppressed OF1 mouse assessed as reduction in fungal tissue burden in mouse kidney at 25 mg/kg, po bid for 5 days; type: functional, organism-based; design: dose 25 mg/kg
Candida tropicalis [32] = assay: Antifungal activity against Candida tropicalis FMR 9726 infected in immunosuppressed OF1 mouse assessed as reduction in fungal tissue burden in mouse kidney at 25 mg/kg, po bid for 5 days; type: functional, organism-based; design: dose 25 mg/kg

## CC[C@@H]([C@H](C)O)n1ncn(-c2ccc(N3CCN(c4ccc(OC[C@@H]5CO[C@@](Cn6cncn6)(c6ccc(F)cc6F)C5)cc4)CC3)cc2)c1=O [POSACONAZOLE]
Candida tropicalis [1]
  MFC: > 16 µg/mL
Candida tropicalis [2]
  MFC: > 16 µg/mL
Candida tropicalis [3]
  Activity: Active
Candida tropicalis [4]
  Activity: Active
Candida tropicalis [5]
  Activity: Active
Candida tropicalis [6]
  Activity: Active
Candida tropicalis [7]
  Activity: Active
Candida tropicalis [8]
  Activity: Active
Candida tropicalis [9]
  Activity: Active
Candida tropicalis [10]
  Activity: Active
Candida tropicalis [11]
  Activity: Active
Candida tropicalis [12]
  Activity: Active
Candida tropicalis [13]
  Activity: inactive
Candida tropicalis [14]
  Activity: Active
Candida tropicalis [15]
  Activity: Active
Candida tropicalis [16]
  Activity: Active
Candida tropicalis [17]
  Activity: Active
Candida tropicalis [18]
  Activity: inactive
Candida tropicalis [19]
  Activity: Active
Candida tropicalis [20]
  Activity: Active
Candida tropicalis [21]
  Activity: Active
Candida tropicalis [22]
  Activity: Active
Candida tropicalis [23]
  Activity: Active
Candida tropicalis [24]
  Activity: Active
Candida tropicalis [25]
  Activity: Active
Candida tropicalis [26]
  Activity: inactive
Candida tropicalis [27]
  Activity: Active
Candida tropicalis [28]
  Activity: inactive
Candida tropicalis [29]
  Activity: Active
Candida tropicalis [30]
  Activity: Active
Candida tropicalis [31]
  Activity: Active
Candida tropicalis [32]
  Activity: Active
